The numbers were not newly measured in patent US6874277B2, “Method and composition for promoting and controlling growth of plants” (priority 1988, dated 2005), which cites them from elsewhere.

SMILES strings stand for the structures. Read-outs that look alike come from different tables or passages of the source.

In the series the test system is tomato variety San Jose Extra Early. The arrangement: Dry wt increase: unit not given here. As to conditions: duration 21 days.

For the compound `OC[C@H]1O[C@@](CO)(O[C@H]2O[C@H](CO)[C@@H](O)[C@H](O)[C@H]2O)[C@@H](O)[C@@H]1O` [10% sucrose solution, sucrose], the Dry wt increase runs as follows: (1 spray) 16; (2 sprays) 41; (3 sprays) 50; (5 sprays) 93; (10 sprays) 163; (20 sprays) 408. Besides, the “Mean total dry wt” value reads like this: (1 spray, 0 sprays 188) 204 mg; (2 sprays) 229 mg; (3 sprays) 238 mg; (5 sprays) 281 mg; (10 sprays) 352 mg; (20 sprays) 596 mg.
